# From US10881653B2, “Tricyclic compounds and their use in the treatment of cancer” (The United States of America, as represented by the …, priority 2015, dated 2021)
# Where a name gives a salt, the structure may show the parent alone. Read-outs that look alike come from different tables or passages of the source.
# Experiments:
# [1] = biological target: T1, recombinant thioredoxin reductase 1 (TrxR1) (Homo sapiens, UniProt Q16881); test: Inhibition of recombinant TrxR1 (DTNB assay); type: biochemical
# T1 sequence (Q16881 1-649): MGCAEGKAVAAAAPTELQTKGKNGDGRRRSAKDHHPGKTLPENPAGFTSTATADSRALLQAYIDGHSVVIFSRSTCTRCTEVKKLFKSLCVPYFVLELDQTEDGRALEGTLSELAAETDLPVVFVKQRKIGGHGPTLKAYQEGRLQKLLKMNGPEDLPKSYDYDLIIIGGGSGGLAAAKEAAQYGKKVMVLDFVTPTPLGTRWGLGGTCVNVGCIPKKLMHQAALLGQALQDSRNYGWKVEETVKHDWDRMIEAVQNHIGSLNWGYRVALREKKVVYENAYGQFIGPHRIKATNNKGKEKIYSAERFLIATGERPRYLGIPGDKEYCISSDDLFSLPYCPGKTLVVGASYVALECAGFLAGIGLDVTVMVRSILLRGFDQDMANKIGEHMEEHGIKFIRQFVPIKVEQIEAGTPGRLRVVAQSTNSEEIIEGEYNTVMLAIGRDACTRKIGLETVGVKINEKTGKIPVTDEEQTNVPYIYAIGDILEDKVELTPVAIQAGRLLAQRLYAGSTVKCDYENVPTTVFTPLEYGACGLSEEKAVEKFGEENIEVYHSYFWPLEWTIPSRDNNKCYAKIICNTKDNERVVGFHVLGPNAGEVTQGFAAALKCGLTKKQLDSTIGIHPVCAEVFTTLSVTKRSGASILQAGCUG
# Description: (§1) Small molecule inhibition of recombinant thioredoxin reductase 1 (TrxR1) and gluthathione reductase (GR) was examined in 96-well plate format. 15 nM TrxR1 was incubated in the presence of 250 μM NADPH, 0.1 mg/ml BSA, and various concentrations of the compound of Example 1 (1% DMSO final) in 50 mM Tris (pH 7.5) and 2 mM EDTA buffer for 15 minutes. Following the incubation period, 2.5 mM DTNB was added to each well and the change in O.D. at 412 nm was followed. Percent activity was determined using DMSO vehicle and no TrxR1 (blank) controls. 2 nM GR was incubated in the presence of 250 μM NADPH, 0.1 mg/ml BSA, and various concentrations of compounds (1% DMSO final) in 50 mM Tris (pH 7.5) and 2 mM EDTA buffer for 15 minutes. Following the incubation period, 1 mM GSSG was added to each well and the change in O.D. at 340 nm was followed. Percent activity was determined using DMSO vehicle and no GR (blank) controls.
# [2] = biological target: T2, gluthathione reductase (GR) (Homo sapiens, UniProt P00390); test: Inhibition of recombinant GR (GSSG assay); type: biochemical
# T2 sequence (P00390 44-522): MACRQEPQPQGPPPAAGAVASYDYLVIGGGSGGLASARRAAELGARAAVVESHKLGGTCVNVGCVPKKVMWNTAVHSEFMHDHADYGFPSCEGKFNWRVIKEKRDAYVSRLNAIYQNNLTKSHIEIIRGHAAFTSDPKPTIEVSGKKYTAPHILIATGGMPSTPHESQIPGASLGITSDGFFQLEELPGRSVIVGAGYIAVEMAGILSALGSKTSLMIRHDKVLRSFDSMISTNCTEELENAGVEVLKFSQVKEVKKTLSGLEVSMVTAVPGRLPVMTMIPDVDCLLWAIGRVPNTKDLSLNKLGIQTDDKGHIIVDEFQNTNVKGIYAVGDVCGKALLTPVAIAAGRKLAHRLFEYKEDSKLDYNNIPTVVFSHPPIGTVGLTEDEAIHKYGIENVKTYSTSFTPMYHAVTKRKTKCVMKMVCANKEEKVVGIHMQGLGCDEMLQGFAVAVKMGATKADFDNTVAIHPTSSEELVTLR
# Description: as §1
# [3] = Biological Example 4, assays of Biological Example 1, read-out: TrxR Inhibition
# [4] = Biological Example 4, assays of Biological Example 1
# [5] = Biological Example 1, 15 nM TrxR1, 250 μM NADPH, 15 minutes incubation, read-out: TrxR inhibition
# [6] = Biological Example 1, 2 nM GR, 250 μM NADPH, 15 minutes incubation
"IC50 [1, 3] [µM]","IC50 [2, 4] [µM]","IC50 [1, 5] [µM]","IC50 [2, 6] [µM]",SMILES
1.46,65.2,,,"O=C1C=C[C@H]2[C@@H]3C(=O)N(c4ccccc4)C(=O)[C@@H]3[C@@H]1N2Cc1ccc(-c2ccccc2)cc1 (relative stereo) [Example 2, exo-11-([1,1′-Biphenyl]-4-ylmethyl)-4-phenyl-4,11-diazatricyclo[5.3.1.0^2,6]-undec-9-ene-3,5,8-trione Trifluoroacetate]"
3.08,> 100,,,"CN1C(=O)C2C(C1=O)[C@@H]1C=CC(=O)[C@H]2N1Cc1ccccc1 (mixture of isomers) [Example 50, endo-11-Benzyl-4-methyl-4,11-diazatricyclo[5.3.1.0^2,6]undec-9-ene-3,5,8-trione Trifluoroacetate]"
0.94,22,2.45,70.4,"O=C1C=C[C@H]2[C@@H]3C(=O)N(c4ccccc4)C(=O)[C@@H]3[C@@H]1N2Cc1ccc(F)cc1Cl (relative stereo) [Example 18, exo-11-(2-Chloro-4-fluorobenzyl)-4-phenyl-4,11-diazatricyclo[5.3.1.0^2,6]-undec-9-ene-3,5,8-trione Trifluoroacetate]"
1.87,25.2,,,"O=C1C=C[C@H]2C3C(=O)N(c4ccccc4)C(=O)C3[C@@H]1N2Cc1cccc(F)c1F (mixture of isomers) [Example 30, endo-11-(2,3-Difluorobenzyl)-4-phenyl-4,11-diazatricyclo[5.3.1.0^2,6]undec-9-ene-3,5,8-trione Trifluoroacetate]"
2.03,28.5,,,"O=C1C=CC2C3C(=O)N(c4ccccc4)C(=O)C3C1N2Cc1ccc(F)cc1 (stereo not shown) [Example 8, 11-(4-Fluorobenzyl)-4-phenyl-4,11-diazatricyclo[5.3.1.0^2,6]undec-9-ene-3,5,8-trione Trifluoroacetate]"
7.06,> 100,,,"O=C1C=C[C@H]2[C@@H]3C(=O)N(c4ccccc4)C(=O)[C@@H]3[C@@H]1N2CC1CC1 (relative stereo) [Example 25, exo-11-(Cyclopropylmethyl)-4-phenyl-4,11-diazatricyclo[5.3.1.0^2,6]undec-9-ene-3,5,8-trione Trifluoroacetate]"
0.79,> 100,2.7,> 100,"O=C1C=C[C@H]2C3C(=O)N(C4CCCCC4)C(=O)C3[C@@H]1N2Cc1ccccc1 (mixture of isomers) [Example 10, endo-11-Benzyl-4-cyclohexyl-4,11-diazatricyclo[5.3.1.0^2,6]undec-9-ene-3,5,8-trione Trifluoroacetate]"
2.71,29.8,,,O=C1C=C[C@H]2C3C(=O)N(c4ccccc4)C(=O)C3[C@@H]1N2Cc1cccc(F)c1 (stereo partly shown) [Example 28]
1.64,> 100,,,"CC(C)(C)N1C(=O)[C@@H]2[C@H](C1=O)[C@H]1C(=O)C=C[C@@H]2N1Cc1ccccc1 (relative stereo) [Example 17, exo-11-Benzyl-4-(tert-butyl)-4,11-diazatricyclo[5.3.1.0^2,6]undec-9-ene-3,5,8-trione Trifluoroacetate]"
1.12,23,3.09,44,"CN1[C@@H]2C(=O)C=C[C@H]1[C@@H]1C(=O)N(c3ccccc3)C(=O)[C@@H]12 (relative stereo) [Example 3, exo-11-Methyl-4-phenyl-4,11-diazatricyclo[5.3.1.0^2,6]undec-9-ene-3,5,8-trione Trifluoroacetate]"
2.49,> 100,,,"CC(c1ccccc1)N1C2C=CC(=O)C1C1C(=O)N(c3ccccc3)C(=O)C12 (stereo not shown) [Example 5, 4-Phenyl-11-(1-phenylethyl)-4,11-diazatricyclo[5.3.1.0^2,6]undec-9-ene-3,5,8-trione Trifluoroacetate]"
2.62,> 100,2.26,> 100,"Cc1cccc(CN2[C@@H]3C(=O)C=C[C@H]2[C@@H]2C(=O)N(c4cccc(N5CCOCC5)c4)C(=O)[C@@H]23)c1 (relative stereo) [Example 70, exo-11-(3-Methylbenzyl)-4-(3-(4-morpholino)phenyl)-4,11-diazatricyclo-[5.3.1.0^2,6]undec-9-ene-3,5,8-trione Trifluoroacetate]"
1.99,> 100,1.31,> 100,"NS(=O)(=O)c1cccc(CN2[C@@H]3C(=O)C=C[C@H]2[C@@H]2C(=O)N(c4ccccc4)C(=O)[C@@H]23)c1 (relative stereo) [Example 67, exo-3-((3,5,10-Trioxo-4-phenyl-4,11-diazatricyclo[5.3.1.0^2,6]undec-8-en-11-yl)methyl)benzenesulfonamide Trifluoroacetate]"
1.34,> 100,,,"O=C1C=C[C@H]2[C@@H]3C(=O)N(c4ccccc4)C(=O)[C@@H]3[C@@H]1N2Cc1cc(F)ccc1F (relative stereo) [Example 27, exo-11-(2,5-Difluorobenzyl)-4-phenyl-4,11-diazatricyclo[5.3.1.0^2,6]undec-9-ene-3,5,8-trione Trifluoroacetate]"
3.26,> 100,,,"Cc1cccc(CN2[C@@H]3C(=O)C=C[C@H]2[C@@H]2C(=O)N(C)C(=O)[C@@H]23)c1 (relative stereo) [Example 53, exo-4-Methyl-11-(3-methylbenzyl)-4,11-diazatricyclo[5.3.1.0^2,6]undec-9-ene-3,5,8-trione Trifluoroacetate]"
1.15,> 100,7.39,> 100,"Cc1cccc(CN2[C@@H]3C(=O)C=C[C@H]2[C@@H]2C(=O)N(c4ccccc4)C(=O)[C@@H]23)c1 (relative stereo) [Example 21, exo-11-(3-Methylbenzyl)-4-phenyl-4,11-diazatricyclo[5.3.1.0^2,6]undec-9-ene-3,5,8-trione Trifluoroacetate]"
1.81,> 100,,,Cc1cccc(CN2[C@@H]3C(=O)C=C[C@H]2C2C(=O)N(C)C(=O)C23)c1 (stereo partly shown) [Example 52]
1.85,> 100,1.85,> 100,"O=C1C=C[C@H]2[C@@H]3C(=O)N(C4CCCCC4)C(=O)[C@@H]3[C@@H]1N2Cc1ccccc1 (relative stereo) [Example 9, exo-11-Benzyl-4-cyclohexyl-4,11-diazatricyclo[5.3.1.0^2,6]undec-9-ene-3,5,8-trione Trifluoroacetate]"

SMILES,"IC50 [1, 3] [µM]","IC50 [2, 4] [µM]","IC50 [1, 5] [µM]","IC50 [2, 6] [µM]"
"O=C1C=CC2C3C(=O)N(c4ccccc4)C(=O)C3C1N2Cc1cccc(Br)c1 (stereo not drawn) [Example 34, exo-11-(3-Bromobenzyl)-4-phenyl-4,11-diazatricyclo[5.3.1.0^2,6]undec-9-ene-3,5,8-trione Trifluoroacetate]",1.23,> 100,,
"O=C1C=CC2C3C(=O)N(c4ccccc4)C(=O)C3C1N2Cc1cccc(C(F)(F)F)c1 (stereo not shown) [Example 32, 4-Phenyl-11-(3-trifluorobenzyl)-4,11-diazatricyclo[5.3.1.0^2,6]undec-9-ene-3,5,8-trione Trifluoroacetate]",1.44,35.8,,
"O=C1C=CC2C3C(=O)N(c4ccccc4)C(=O)C3C1N2Cc1cccc(C(F)(F)F)c1F (stereo not drawn) [Example 44, exo-11-(2-Fluoro-3-(trifluoromethyl)benzyl)-4-phenyl-4,11-diazatricyclo-[5.3.1.0^2,6]undec-9-ene-3,5,8-trione Trifluoroacetate]",2.33,,,
